The values below come from ChEMBL document CHEMBL1144589, “Pharmacophoric features of Pseudomonas aeruginosa deacetylase LpxC inhibitors: an electronic and structural analysis” (Bioorg Med Chem Lett, 2007).

This test concerns the target T1, UDP-3-O-acyl-N-acetylglucosamine deacetylase (Pseudomonas aeruginosa (strain ATCC 15692 / PAO1 / 1C / PRS 101 / LMG12228)) (UniProt P47205).
T1 sequence (whole entry): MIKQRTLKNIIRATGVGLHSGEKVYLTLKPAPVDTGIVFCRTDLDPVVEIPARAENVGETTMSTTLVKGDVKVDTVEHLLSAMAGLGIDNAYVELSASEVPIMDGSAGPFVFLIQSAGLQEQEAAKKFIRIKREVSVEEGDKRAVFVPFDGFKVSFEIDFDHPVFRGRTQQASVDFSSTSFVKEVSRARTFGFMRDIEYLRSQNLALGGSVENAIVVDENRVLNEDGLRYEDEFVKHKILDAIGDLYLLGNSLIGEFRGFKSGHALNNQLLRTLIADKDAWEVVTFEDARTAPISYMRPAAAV
The test can be described thus: Inhibition at Pseudomonas aeruginosa deacetylase LpxC receptor.

Each structure is given as a SMILES string. Activity calls are given as the source filed them. The rule behind the calls is not given here.

Consider `O=C(NO)C1COC(c2cccc(C(F)(F)F)c2)=N1` (stereo unspecified), for which the outcome was Active.
